How the values were obtained:
[1] = target: Sphingosine 1-phosphate receptor 2 (Homo sapiens, UniProt O95136); assay: Binding affinity to S1PR2 (unknown origin) assessed as dissociation constant by surface plasmon resonance analysis
SW620/5-FU [2] = assay: Reversal of 5-FU resistance in human SW620/5-FU cells assessed as reduction in cell viability incubated for 48 hrs in presence of 5-FU by MTT assay; assay type: functional, cell-based; also: test concentration or dose not given here
[3] = Cytotoxicity against human NCM460 cells assessed as reduction in cell viability incubated for 48 hrs by MTT assay; assay type: toxicity, cell-based
[4] = target: Sphingosine 1-phosphate receptor 3 (Homo sapiens, UniProt Q99500); assay: Binding affinity to S1PR3 (unknown origin) assessed as dissociation constant by surface plasmon resonance analysis
Chain of Sphingosine 1-phosphate receptor 3 (Q99500 whole entry): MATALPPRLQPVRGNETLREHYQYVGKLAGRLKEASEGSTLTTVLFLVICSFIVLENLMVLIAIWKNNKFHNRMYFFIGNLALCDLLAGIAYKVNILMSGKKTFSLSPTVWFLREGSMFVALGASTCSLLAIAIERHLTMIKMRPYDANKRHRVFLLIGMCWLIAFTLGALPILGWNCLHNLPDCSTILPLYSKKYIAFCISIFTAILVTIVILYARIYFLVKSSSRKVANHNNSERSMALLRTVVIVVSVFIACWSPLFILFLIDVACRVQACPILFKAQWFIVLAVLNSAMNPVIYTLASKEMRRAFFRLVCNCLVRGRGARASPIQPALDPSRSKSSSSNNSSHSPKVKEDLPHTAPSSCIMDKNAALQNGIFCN

[5] = target: Sphingosine 1-phosphate receptor 5 (Homo sapiens, UniProt Q9H228); assay: Binding affinity to S1PR5 (unknown origin) assessed as dissociation constant by surface plasmon resonance analysis
Chain of Sphingosine 1-phosphate receptor 5 (Q9H228 whole entry): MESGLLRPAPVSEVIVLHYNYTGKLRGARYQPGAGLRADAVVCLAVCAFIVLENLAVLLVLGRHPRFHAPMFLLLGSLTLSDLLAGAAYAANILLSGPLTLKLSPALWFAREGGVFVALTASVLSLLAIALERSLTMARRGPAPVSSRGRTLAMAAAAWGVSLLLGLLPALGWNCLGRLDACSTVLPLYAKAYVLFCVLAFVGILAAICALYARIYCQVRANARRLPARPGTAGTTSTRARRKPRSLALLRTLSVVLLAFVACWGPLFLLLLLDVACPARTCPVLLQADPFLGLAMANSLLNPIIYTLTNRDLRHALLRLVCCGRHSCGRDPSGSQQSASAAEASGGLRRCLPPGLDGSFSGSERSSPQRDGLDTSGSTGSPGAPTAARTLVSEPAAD

SW620/5-FU [6] = assay: Antiproliferative activity against human SW620/5-FU cells assessed as reduction in cell viability incubated for 48 hrs by MTT assay; assay type: functional, cell-based
[7] = target: Sphingosine 1-phosphate receptor 1 (Homo sapiens, UniProt P21453); assay: Binding affinity to S1PR1 (unknown origin) assessed as dissociation constant by surface plasmon resonance analysis
Chain of Sphingosine 1-phosphate receptor 1 (P21453 whole entry): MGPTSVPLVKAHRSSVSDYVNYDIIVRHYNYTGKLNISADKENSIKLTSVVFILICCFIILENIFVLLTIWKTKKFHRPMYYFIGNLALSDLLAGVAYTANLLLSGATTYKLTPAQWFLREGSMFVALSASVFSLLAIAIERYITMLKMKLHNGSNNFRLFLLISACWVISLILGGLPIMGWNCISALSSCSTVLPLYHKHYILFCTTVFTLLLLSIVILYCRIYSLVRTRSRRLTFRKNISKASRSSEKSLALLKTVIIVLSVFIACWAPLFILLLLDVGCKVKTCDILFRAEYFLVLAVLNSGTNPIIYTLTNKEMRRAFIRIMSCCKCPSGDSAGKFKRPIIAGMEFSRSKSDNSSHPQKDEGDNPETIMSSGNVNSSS

NCM460 = assay: Cytotoxicity against human NCM460 cells assessed as reduction in cell viability incubated for 48 hrs in presence of 5-FU by MTT assay; assay type: functional, cell-based; conditions: NCM460, 48 h
HCT-116 [8] = assay: Reversal of 5-FU resistance in human HCT-116 cells overexpressing DPD assessed as reduction in cell viability incubated for 48 hrs in presence of 5-FU by MTT assay; assay type: functional, cell-based; conditions: HCT-116, 48 h; also: test concentration or dose not given here
HT-29 [9] = assay: Antiproliferative activity against human HT-29 cells assessed as reduction in cell viability incubated for 48 hrs by MTT assay; assay type: functional, cell-based; conditions: HT-29, 48 h
HCT-116 [10] = assay: Antiproliferative activity against human HCT-116 cells overexpressing DPD assessed as reduction in cell viability incubated for 48 hrs by MTT assay; assay type: functional, cell-based; conditions: HCT-116, 48 h
[11] = target: T1, Sphingosine 1-phosphate receptor 4 (Homo sapiens, UniProt O95977); assay: Binding affinity to S1PR4 (unknown origin) assessed as dissociation constant by surface plasmon resonance analysis
T1 sequence (O95977 whole entry): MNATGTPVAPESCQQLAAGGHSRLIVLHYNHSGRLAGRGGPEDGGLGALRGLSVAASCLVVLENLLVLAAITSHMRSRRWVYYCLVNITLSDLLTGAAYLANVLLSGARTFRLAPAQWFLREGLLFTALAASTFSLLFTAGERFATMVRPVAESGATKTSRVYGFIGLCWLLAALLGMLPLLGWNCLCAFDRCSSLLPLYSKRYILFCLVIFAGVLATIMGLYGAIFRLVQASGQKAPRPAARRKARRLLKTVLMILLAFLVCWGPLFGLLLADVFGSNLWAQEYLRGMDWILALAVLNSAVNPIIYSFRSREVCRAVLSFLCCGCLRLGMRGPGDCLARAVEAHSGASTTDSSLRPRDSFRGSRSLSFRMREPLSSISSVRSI

HT-29 [12] = assay: Reversal of 5-FU resistance in human HT-29 cells assessed as reduction in cell viability incubated for 48 hrs in presence of 5-FU by MTT assay; assay type: functional, cell-based; conditions: HT-29, 48 h; also: test concentration or dose not given here

Chain of Sphingosine 1-phosphate receptor 2 (O95136 whole entry): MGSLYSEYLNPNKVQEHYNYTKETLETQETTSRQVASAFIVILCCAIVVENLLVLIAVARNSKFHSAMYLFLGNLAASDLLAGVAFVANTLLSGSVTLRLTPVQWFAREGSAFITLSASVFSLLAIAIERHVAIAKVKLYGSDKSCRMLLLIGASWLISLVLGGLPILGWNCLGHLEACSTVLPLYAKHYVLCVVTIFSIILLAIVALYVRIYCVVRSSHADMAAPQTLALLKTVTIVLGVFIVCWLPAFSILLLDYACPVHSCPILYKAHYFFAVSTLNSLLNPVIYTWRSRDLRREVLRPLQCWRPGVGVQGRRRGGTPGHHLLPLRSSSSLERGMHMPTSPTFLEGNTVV

`CCC(CC)CN1CCCN(C(=O)Nc2cc(Oc3ccc(F)cc3)cc(Oc3ccc(C(=O)NC)cc3)c2)CC1` showed a Kd [1] of over 1000 nM.

For `CNC(=O)c1ccc(Oc2cc(NC(=O)N3CCN(c4ccc(Cl)cc4)CC3)cc(Oc3ccc(F)cc3)c2)cc1`, the Kd [1] was over 1000 nM.

With `O=C(Nc1cc(Oc2ccncc2)cc(Oc2ccc(F)cc2)c1)Nc1cc(Cl)nc(Cl)c1` the Kd [1] was 8.76 nM.

In the case of `CCC(CC)CN1CCN(C(=O)Nc2cc(Oc3ccc(F)cc3)cc(Oc3ccc(C(=O)N4CCCCCC4)cc3)c2)CC1`, the Kd [1] is reported as over 1000 nM.

For `CNC(=O)c1ccc(Oc2cc(NC(=O)Nc3cc(Cl)nc(Cl)c3)cc(Oc3ccc(F)cc3)c2)cc1`, the Kd [1] was 9.44 nM.

`C#CCNC(=O)c1ccc(Oc2cc(NC(=O)N3CCN(CC(CC)CC)CC3)cc(Oc3ccc(F)cc3)c2)cc1` gave a Kd [1] of over 1000 nM.

In the case of `CCC(CC)CC1(O)CCN(C(=O)Nc2cc(Oc3ccncc3)cc(Oc3ccc(F)cc3)c2)CC1`, the IC50 (SW620/5-FU [2]) is reported as 2940 nM, the IC50 at 48 hrs [3] is reported as over 100000 nM and the Kd [4] is reported as over 100 nM. The Kd [5] was over 100 nM, the IC50 (SW620/5-FU [6]) was 18700 nM and the Kd [7] was over 100 nM. For the same compound, the Kd [1] was 0.98 nM, the IC50 (NCM460) was over 100000 nM and the IC50 (HCT-116 [8]) was 2160 nM. For the same compound, the IC50 (HT-29 [9]) was 55400 nM, the IC50 (HCT-116 [10]) was 49200 nM and the Kd [11] was over 100 nM. It also gave an IC50 (HT-29 [12]) of 8560 nM.

`CNC(=O)c1ccc(Oc2cc(NC(=O)N3CCN(Cc4ccc(F)cc4)CC3)cc(Oc3ccc(F)cc3)c2)cc1` showed a Kd [1] of over 1000 nM.

For `CCC(CC)CC1(O)CCN(C(=O)Nc2cc(Oc3ccc(F)cc3)cc(Oc3ccc(C(N)=O)cc3)c2)CC1`, the Kd [1] was 198 nM.

Compound `CCC(CC)CC1(O)CCN(C(=O)Nc2cc(Oc3ccc(F)cc3)cc(Oc3ccc(C(=O)NC)cc3)c2)CC1` has a Kd [1] of 4.15 nM.

With `CCC(CC)CN1CCN(C(=O)Nc2cc(Oc3ccc(F)cc3)cc(Oc3ccc(C(=O)O)cc3)c2)CC1` the IC50 (SW620/5-FU [2]) was 2150 nM, the IC50 at 48 hrs [3] was over 100000 nM and the Kd [4] was over 100 nM. It also gave a Kd [5] of over 100 nM, an IC50 (SW620/5-FU [6]) of over 100000 nM and a Kd [7] of over 100 nM. The Kd [1] was 0.88 nM, the IC50 (NCM460) was over 100000 nM and the IC50 (HCT-116 [8]) was 2650 nM. It also gave an IC50 (HT-29 [9]) of over 100000 nM, an IC50 (HCT-116 [10]) of over 100000 nM and a Kd [11] of over 100 nM. It also gave an IC50 (HT-29 [12]) of 5130 nM.

With `CCC(CC)CN1CCN(C(=O)Nc2cc(Oc3ccc(F)cc3)cc(Oc3ccc(C(=O)N4CCOCC4)cc3)c2)CC1` the Kd [1] was over 1000 nM.

Compound `CNC(=O)c1ccc(Oc2cc(NC(=O)N3CCC(O)(c4ccc(Cl)cc4)CC3)cc(Oc3ccc(F)cc3)c2)cc1` has a Kd [1] of 5.16 nM.

Work on `CCC(CC)CN1CCN(C(=O)Nc2cc(Oc3ccc(F)cc3)cc(Oc3ccc(C(=O)N(C)C)cc3)c2)CC1` yielded a Kd [1] of 55.6 nM.

In the case of `CCC(CC)CN1CCN(C(=O)Nc2cc(Oc3ccc(F)cc3)cc(Oc3ccc(C(=O)NC4CCCCC4)cc3)c2)CC1`, the Kd [1] is reported as 12.7 nM.

With `CNC(=O)c1ccc(Oc2cc(NC(=O)N3CCN(S(=O)(=O)c4ccc(C)cc4)CC3)cc(Oc3ccc(F)cc3)c2)cc1` the Kd [1] was over 1000 nM.

In the case of `CNC(=O)c1ccc(Oc2cc(NC(=O)N3CCN(c4ccc(OC)cc4)CC3)cc(Oc3ccc(F)cc3)c2)cc1`, the Kd [1] is reported as 21.5 nM.

With `O=C(Nc1cc(Cl)nc(Cl)c1)Nc1cc(Cl)nc(Cl)c1` the Kd [1] was 13.2 nM.

For `CCC(CC)CN1CCN(C(=O)Nc2cc(Oc3ccncc3)cc(Oc3ccc(F)cc3)c2)CC1`, the IC50 (SW620/5-FU [2]) was 5840 nM, the IC50 at 48 hrs [3] was over 100000 nM and the Kd [4] was over 100 nM. It also gave a Kd [5] of over 100 nM, an IC50 (SW620/5-FU [6]) of 25200 nM and a Kd [7] of over 100 nM. The Kd [1] was 0.89 nM, the IC50 (NCM460) was over 100000 nM and the IC50 (HCT-116 [8]) was 2860 nM. For the same compound, the IC50 (HT-29 [9]) was over 100000 nM, the IC50 (HCT-116 [10]) was over 100000 nM and the Kd [11] was over 100 nM. For the same compound, the IC50 (HT-29 [12]) was over 100000 nM.

Source: ChEMBL document CHEMBL5096216, “Rational Design, Synthesis, and Biological Evaluation of Novel S1PR2 Antagonists for Reversing 5-FU-Resistance in Colorectal Cancer” (J Med Chem, 2022)
